The values that follow come from patent US20220125051A1, “PRE-HARVEST DESICCATION METHOD” (SYNGENTA CROP PROTECTION AG, priority 2019, published 2022).

Read-outs that look alike come from different tables or passages of the source.

Holding throughout (format): in vivo
The test system of assay [1] is Digitaria sanguinalis (DIGSA). The assay can be described thus: Post-emergence efficacy, Method A. The following applies: Application rate 500 g/Ha; evaluated after 13 days; 100=total damage to plant, 0=no damage to plant. The gist of the method:
(§1)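 Plants raised 14 days from seed in standard soil in a glasshouse (24/16 °C day/night, 14 h light, 65% humidity) were sprayed with compound dissolved in acetone plus IF50 solvent/emulsifier (50 g/l solution), diluted with 0.25% or 1% Empicol ESC70 + 1% ammonium sulphate. Damage was scored visually after 13 days (0 = none, 100 = total).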

Assay [2] relates to Echinochloa crus-galli (ECHCG). The experiment in a line: Post-emergence efficacy, Method A. The following applies: Application rate 500 g/Ha; evaluated after 13 days; 100=total damage to plant, 0=no damage to plant. The gist of the method: as §1
For assay [3], the system named is Eleusine indica (ELEIN). The assay can be described thus: Post-emergence efficacy, Method A. The following applies: evaluated after 13 days. The procedure, abridged: as §1
Assay [4] deals with Euphorbia heterophylla (EPHHL). The experiment in a line: Post-emergence efficacy, Method A. Conditions: evaluated after 13 days. The procedure, abridged:
as §1

Assay [5] relates to Lolium perenne (LOLPE). The assay can be described thus: Post-emergence efficacy, Method A. The following applies: Application rate 500 g/Ha; evaluated after 13 days; 100=total damage to plant, 0=no damage to plant. The gist of the method:
as §1

Assay [6] has as its system Setaria faberi (SETFA). The experiment in a line: Post-emergence efficacy, Method A. Conditions: Application rate 500 g/Ha; evaluated after 13 days; 100=total damage to plant, 0=no damage to plant. The procedure, abridged: as §1
Assay [7] has as its system Brassica napus (BRSNN). The experiment in a line: Pre-harvest desiccation of crop plants. Conditions: Table E, evaluated after 7 and 14 days (which not stated), 100=total damage to plant, 0=no damage. The procedure: (§2) Seeds of a variety of test species were sown in standard loam based soil in pots. After cultivation from between 21 and 28 days (post-emergence) under controlled conditions in a glasshouse (at 24/16° C., day/night; 14 hours light; 65% humidity) for warm climate species and (at 20/16° C. day/night; 15 hours light; 65% humidity) for cool climate species.
(§3) The plants were sprayed with an aqueous spray solution derived from dissolving the technical active ingredient formula in a small amount of acetone and a special solvent and emulsifier mixture referred to as IF50 (11.12% Emulsogen EL360 TM+44.44% N-methylpyrrolidone+44.44% Dowanol DPM glycol ether), to create a 50 g/I solution which was then diluted to required concentration using a solution of 1% Empicol ESC70 (Sodium lauryl ether sulphate)+1% ammonium sulphate in water as diluent.
(§4) The delivery of the aqueous spray solution was via a laboratory track sprayer which delivered the aqueous spray composition at a rate of 200 litres per hectare, using a flat fan nozzle (Teejet 11002VS) and an application volume of 200 litre/ha (at 2 bar).
(§5) The test plants were then grown in a glasshouse under controlled conditions (at 24/16° C., day/night; 14 hours light; 65% humidity) for warm climate species and (at 20/16° C. day/night; 15 hours light; 65% humidity) for cool climate species and watered twice daily. After 7 and 14 days the test was evaluated (100=total damage to plant; 0=no damage to plant).
(§6) A value of n/t indicates not tested.
(§7) Glycine Max (GLXMA), Solanum turberosum (SOLTU), Gossypium hirsutum (GOSHI), Brassica napus (BRSNN), Helianthus annus (HELAN)

For assay [8], the system named is Glycine Max (GLXMA). The experiment in a line: Pre-harvest desiccation of crop plants. Conditions: Table E, evaluated after 7 and 14 days (which not stated), 100=total damage to plant, 0=no damage. On the procedure: as §2, §3, §4, §5, §6, §7
The subject of assay [9] is Gossypium hirsutum (GOSHI). The assay can be described thus: Pre-harvest desiccation of crop plants. The following applies: Table E, evaluated after 7 and 14 days (which not stated), 100=total damage to plant, 0=no damage. The procedure: as §2, §3, §4, §5, §6, §7
Assay [10] deals with Solanum turberosum (SOLTU). The experiment in a line: Pre-harvest desiccation of crop plants. Conditions: Table E, evaluated after 7 and 14 days (which not stated), 100=total damage to plant, 0=no damage. The procedure:
as §2, §3, §4, §5, §6, §7

The test system of assay [11] is Amaranthus retroflexus (AMARE). The assay can be described thus: Post-emergence efficacy, Method B. Conditions: read-out: Control of weed species after post-emergence application, AMARE. On the procedure: (§8) An “instant formulation”, known as the IF50, containing 50 g/L of the “technical” (i.e. unformulated) active ingredient was prepared by dissolving the active ingredient in a mixture of organic solvents and emulsifier, details of which are provided in the table. This IF50 was then mixed with a small, variable amount of acetone to aid dissolution, before addition of an aqueous solution of 1% v/v ammonium sulphate+1% v/v Empicol ESC70 (Sodium lauryl ether sulphate) adjuvant, as the aqueous diluent, to form an aqueous spray solution which contains a predetermined concentration of the active ingredient (which varies depending on the application rate of the active ingredient to the plants).
(§9) This aqueous spray solution was then sprayed onto the plants, after about 12 days' cultivation. The plants were grown from seeds sown in standard soil, placed in a glasshouse under controlled conditions (at 24/18° C. or 20/16° C., day/night; 16 hours light; 65% humidity). After spray application the plants were then grown on in a glasshouse under the same conditions and watered twice daily. […] the test was evaluated (100=total damage to plant; 0=no damage to plant).
(§10) Ipomoea hederacea (IPOHE), Euphorbia heterophylla (EPHHL), Chenopodium album (CHEAL), Amaranthus retroflexus (AMARE), Lolium perenne (LOLPE), Digitaria sanguinalis (DIGSA), Eleusine indica (ELEIN), Echinochloa crus-galli (ECHCG), Setaria faberi (SETFA)

In assay [12] the test system is Chenopodium album (CHEAL). The experiment in a line: Post-emergence efficacy, Method B. The following applies: read-out: Control of weed species after post-emergence application, CHEAL. The procedure: as §8, §9, §10
Assay [13] deals with Digitaria sanguinalis (DIGSA). The assay can be described thus: Post-emergence efficacy, Method B. The following applies: read-out: Control of weed species after post-emergence application, DIGSA. The procedure: as §8, §9, §10
For assay [14], the system named is Echinochloa crus-galli (ECHCG). The assay can be described thus: Post-emergence efficacy, Method B. Conditions: read-out: Control of weed species after post-emergence application, ECHCG. On the procedure: as §8, §9, §10
For assay [15], the system named is Eleusine indica (ELEIN). The assay can be described thus: Post-emergence efficacy, Method B. Conditions: read-out: Control of weed species after post-emergence application, ELEIN. On the procedure: as §8, §9, §10
The subject of assay [16] is Euphorbia heterophylla (EPHHL). The experiment in a line: Post-emergence efficacy, Method B. Conditions: read-out: Control of weed species after post-emergence application, EPHHL. The procedure: as §8, §9, §10
The test system of assay [17] is Ipomoea hederacea (IPOHE). The experiment in a line: Post-emergence efficacy, Method B. The following applies: read-out: Control of weed species after post-emergence application, IPOHE. On the procedure:
as §8, §9, §10

Assay [18] concerns Lolium perenne (LOLPE). The experiment in a line: Post-emergence efficacy, Method B. The following applies: read-out: Control of weed species after post-emergence application, LOLPE. On the procedure:
as §8, §9, §10

For assay [19], the system named is Setaria faberi (SETFA). The assay can be described thus: Post-emergence efficacy, Method B. Conditions: read-out: Control of weed species after post-emergence application, SETFA. On the procedure: as §8, §9, §10
Assay [20] relates to Amaranthus palmeri (AMAPA). The experiment in a line: Post-emergence efficacy, Method A. Conditions: Amaranthus palmeri, post-emergence, 312 h; Application Rate 500 g/Ha; evaluated after 13 days; Method A; read-out: Control of weed species after post-emergence application, AMAPA (100=total damage to plant; 0=no damage to plant). The procedure, abridged:
as §1

Assay [21] has as its system Chenopodium album (CHEAL). The assay can be described thus: Post-emergence efficacy, Method A. The following applies: Chenopodium album, post-emergence, 312 h; Application Rate 500 g/Ha; evaluated after 13 days; Method A; read-out: Control of weed species after post-emergence application, CHEAL (100=total damage to plant; 0=no damage to plant). The gist of the method: as §1

Where [22] appears, read: Application rate 500 g/Ha, 100=total damage to plant, 0=no damage to plant.
The mark [23] stands for this setting: Method B, 1000 g/Ha, 100=total damage to plant, 0=no damage.

On to `O=C(O)CC[n+]1ccc(-c2ncccn2)cn1.[Cl-]` [Compound A26, 3-(4-pyrimidin-2-ylpyridazin-1-ium-1-yl)propanoic acid chloride], for which, in assay [1], the “Control of weed species after post-emergence application, DIGSA” value is given as 100. In assay [2], the “Control of weed species after post-emergence application, ECHCG” value turned out to be 100. Besides, the “Control of weed species after post-emergence application, ELEIN” value in assay [3] (setting [22]) was determined as 100. Moreover, in assay [4] (setting [22]), the “Control of weed species after post-emergence application, EPHHL” value came out at 100. Also, in [5], the “Control of weed species after post-emergence application, LOLPE” value came to 90. Also, the “Control of weed species after post-emergence application, SETFA” value in [6] is recorded as 100. Also, the “Post-emergence dessication efficacy, BRSNN” value came to 65 in [7] (150 g/Ha), 97 in [7] (300 g/Ha) and 99 in assay [7] (600 g/Ha). Moreover, the figures for the “Post-emergence dessication efficacy, GLXMA” value in [8] (150 g/Ha), in assay [8] (300 g/Ha) and in assay [8] (600 g/Ha) were 96, 93 and 99, respectively. In addition, the “Post-emergence dessication efficacy, GOSHI” value in assay [9] (150 g/Ha), in assay [9] (300 g/Ha) and in assay [9] (600 g/Ha) was 100 in each case. For the same compound, the “Post-emergence dessication efficacy, SOLTU” value in assay [10] (150 g/Ha) turned out to be 62; in assay [10] (300 g/Ha) it was 95; in [10] (600 g/Ha), 73.

Consider `Nc1ccnc(-c2cc[n+](CCC(=O)O)nc2)n1` [Compound A41], for which the pest or weed control at 1000 g/ha in [11] was determined as 100%; in assay [12], 90%; in assay [13], 100%; in assay [14], 100%; in assay [15] it was 50%; in assay [16], 100%. Besides, the pest or weed control at 1000 g/ha was determined as 20% in [17], 60% in assay [18] and 100% in [19].

Regarding `N[C@H](CC[n+]1ccc(-c2ncccn2)cn1)C(=O)O` [Compound A207, [(1R)-1-carboxy-3-(4-pyrimidin-2-ylpyridazin-1-ium-1-yl)propyl]ammonium 2,2,2-trifluoroacetate], the pest or weed control at 500 g/ha was determined as 100% in assay [20]; 100% in [21]; 100% in [3] (Eleusine indica, post-emergence, 312 h, Application Rate 500 g/Ha, Method A, read-out: Control of weed species after post-emergence application, ELEIN (100=total damage to plant; 0=no damage to plant)); 90% in assay [4] (Euphorbia heterophylla, post-emergence, 312 h, Application Rate 500 g/Ha, Method A, read-out: Control of weed species after post-emergence application, EPHHL (100=total damage to plant; 0=no damage to plant)). Further, the pest or weed control at 1000 g/ha in assay [11] came to 100%; in assay [12] it was 90%; in assay [13] it was 90%; in assay [14], 100%; in assay [15], 100%; in [16], 70%. For the same compound, the pest or weed control at 1000 g/ha stood at 100% in [17], 20% in assay [18] and 100% in [19].

For the compound `N[C@@H](CCC[n+]1ccc(-c2ncccn2)cn1)C(=O)O` [Compound A211, [(1S)-1-carboxy-4-(4-pyrimidin-2-ylpyridazin-1-ium-1-yl)butyl]ammonium dichloride], the pest or weed control at 500 g/ha worked out at 100% in assay [11]; 90% in [12]; 100% in assay [13]; 100% in assay [14]; 100% in assay [15]; 80% in [16]. Also, the results for the pest or weed control at 500 g/ha in assay [17], in assay [18] and in assay [19] were 100%, 10% and 100%, respectively.

Turning to `O=S(=O)([O-])CC[n+]1ccc(-c2cccnn2)cn1` [Compound A213, 2-(4-pyridazin-1-ium-3-ylpyridazin-1-ium-1-yl)ethanesulfonate chloride], the pest or weed control at 1000 g/ha in [11] was 100%; in [12], 80%; in [13] it was 100%; in [14], 100%; in assay [15] it was 100%; in assay [16], 100%. Moreover, the figures for the pest or weed control at 1000 g/ha in assay [17], in assay [18] and in assay [19] were 80%, 90% and 100%, respectively.

In the case of `N#C[N-]C(=O)CC[n+]1ccc(-c2ncccn2)cn1` [Compound A226], the pest or weed control at 1000 g/ha in [11] (setting [23]) was 100%; in assay [12] (setting [23]) it was 100%; in [13] (setting [23]) it was 100%; in assay [14] (setting [23]) it was 100%; in assay [17] (setting [23]), 100%; in assay [18] (setting [23]), 70%. In assay [19] (setting [23]), the pest or weed control at 1000 g/ha turned out to be 70%.
